{
  "source": "patent US7825087B2",
  "about": "(Elan Pharma International Limited, priority 2005, dated 2010)",
  "origin": "cited, not measured here",
  "key": {"[1]": {"conditions": "distribution in blood, concentration dependent"}, "bone marrow": {"test_system": "bone marrow", "conditions": "animal models or man"}},
  "data": [
    {"substance": "[R—[R*,R*-(E)]]-cyclic (L-alanyl-D-alanyl-N-methyl-L-leucyl-N-methyl-L-leucyl-N-methyl-L-valyl-3-hydroxy-N,4-dimethyl-L-2-amino-6-octenoyl-L-(alpha)-amino-butyryl-N-methylglycyl-N-methyl-L-leucyl-L-valyl-N-methyl-L-leucyl) [cyclosporine]", "values": [
      {"measurement": "fraction in erythrocytes", "setting": "[1]", "result": "41%-58%"},
      {"measurement": "fraction in granulocytes", "setting": "[1]", "result": "5%-12%"},
      {"measurement": "fraction in lymphocytes", "setting": "[1]", "result": "4%-9%"},
      {"measurement": "bone marrow suppression", "setting": "bone marrow", "result": "does not cause bone marrow suppression"}
    ]}
  ]
}
